According to patent US9365583B2, “Substituted pyrazoles and uses thereof” (Genentech, Inc., priority 2013, dated 2016):

Biological target: T1, N-terminally GST-tagged DLK (catalytic domain amino acid 1-520) (Homo sapiens, UniProt Q12852)
T1 construct: N-terminally GST-tagged DLK (catalytic domain amino acid 1-520); purchased Carna Bioscience
T1 sequence (Q12852 1-520): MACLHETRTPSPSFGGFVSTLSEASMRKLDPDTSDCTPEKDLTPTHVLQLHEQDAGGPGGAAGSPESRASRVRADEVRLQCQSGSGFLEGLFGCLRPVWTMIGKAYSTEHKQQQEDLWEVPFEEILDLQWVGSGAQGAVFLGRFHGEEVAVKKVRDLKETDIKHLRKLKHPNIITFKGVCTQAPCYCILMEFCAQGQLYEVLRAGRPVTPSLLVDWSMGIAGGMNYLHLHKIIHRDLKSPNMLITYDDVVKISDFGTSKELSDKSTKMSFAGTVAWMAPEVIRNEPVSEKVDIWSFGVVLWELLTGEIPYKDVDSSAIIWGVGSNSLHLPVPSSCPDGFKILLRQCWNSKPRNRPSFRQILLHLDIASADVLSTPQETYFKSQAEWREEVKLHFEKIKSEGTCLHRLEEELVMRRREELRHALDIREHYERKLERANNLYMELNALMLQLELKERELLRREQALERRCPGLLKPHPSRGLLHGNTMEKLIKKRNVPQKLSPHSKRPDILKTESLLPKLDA
Assay: DLK TR-FRET inhibition assay
Assay type: biochemical
Conditions: 5 nM GST-DLK, 40 nM HIS-MKK4 K131M substrate, 30 μM ATP, 60 minutes at ambient temperature
Summary of the method: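 5 nM GST-DLK (aa 1-520), 40 nM HIS-MKK4 K131M and 30 μM ATP reacted 60 min at ambient temperature in HEPES pH 7.5 buffer with 10 mM MgCl2, compound 1:3 serially diluted from 20 uM. TR-FRET detection of phospho-MKK4 used Eu-cryptate anti-phospho-MKK4 plus D2 anti-HIS, read after 3 h (665/615 nm).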

Row | SMILES | Ki [nM]
1 | CC(C)n1nc(-c2cnc(N)c(OC(F)(F)F)c2)cc1[C@H]1[C@@H]2C[C@@]3(CCN3C3COC3)C[C@@H]21 [compound 140, 5-(1-isopropyl-5-((1′R,2r,5′S,6′r)-1-(oxetan-3-yl)spiro[azetidine-2,3′-bicyclo[3.1.0]hexan]-6′-yl)-1H-pyrazol-3-yl)-3-(trifluoro-methoxy)pyridin-2-amine] | 6.59
2 | COCCN1CC2(C[C@@H]3[C@H](C2)[C@H]3c2cc(-c3cnc(N)c(C(F)(F)F)c3)nn2C(C)C)C1 [compound 141, 5-(1-isopropyl-5-((1′R,5′S,6′r)-1-(2-methoxyethyl)spiro[azetidine-3,3′-bicyclo[3.1.0]hexan]-6′-yl)-1H-pyrazol-3-yl)-3-(trifluoromethyl)pyridin-2-amine] | 8.52
3 | COC1CN([C@H]2C[C@@H]3[C@H](C2)[C@H]3c2cc(-c3cnc(N)c(C(F)(F)F)c3)nn2CC(F)F)C1 [compound 144, 5-(1-(2,2-difluoroethyl)-5-((1R,3r,5S,6r)-3-(3-methoxyazetidin-1-yl)bicyclo[3.1.0]hexan-6-yl)-1H-pyrazol-3-yl)-3-(trifluoro-methyl)pyridin-2-amine] | 2.8
4 | CO[C@H]1CCN([C@H]2C[C@@H]3[C@H](C2)[C@H]3c2cc(-c3cnc(N)c(C(F)(F)F)c3)nn2CC(F)F)C1 [compound 145, 5-(1-(2,2-difluoroethyl)-5-((1R,3r,5S,6S)-3-((S)-3-methoxypyrrolidin-1-yl)bicyclo[3.1.0]hexan-6-yl)-1H-pyrazol-3-yl)-3-(trifluoro-methyl)pyridin-2-amine] | 3.3
5 | COCCN1CC[C@@]12C[C@@H]1[C@H](C2)[C@H]1c1cc(-c2cnc(N)c(OC(F)(F)F)c2)nn1C(C)C [compound 146, 5-(1-isopropyl-5-((1′R,2r,5′S,6′r)-1-(2-methoxyethyl)spiro[azetidine-2,3′-bicyclo[3.1.0]hexan]-6-yl)-1H-pyrazol-3-yl)-3-(trifluoro-methoxy)pyridin-2-amine] | 4.3
6 | CC(C)n1nc(-c2cnc(N)c(OC(F)(F)F)c2)cc1[C@H]1[C@@H]2C[C@@]3(CCN3CC(F)F)C[C@@H]21 [compound 147, 5-(5-((1′R,2r,5′S,6′r)-1-(2,2-difluoro-ethyl)spiro[azetidine-2,3′-bicyclo[3.1.0]hexan]-6′-yl)-1-isopropyl-1H-pyrazol-3-yl)-3-(trifluoro-methoxy)pyridin-2-amine] | 5.7
7 | CC(C)n1nc(-c2cnc(N)c(C(F)(F)F)c2)cc1[C@H]1[C@@H]2C[C@@]3(CCN3CC(F)F)C[C@@H]21 [compound 148, 5-(5-((1′R,2r,5′S,6′r)-1-(2,2-difluoro-ethyl)spiro[azetidine-2,3′-bicyclo[3.1.0]hexan]-6-yl)-1-isopropyl-1H-pyrazol-3-yl)-3-(trifluoro-methyl)pyridin-2-amine] | 8.9
8 | COC1CN([C@@H]2C[C@@H]3[C@H](C2)[C@H]3c2cc(-c3cnc(N)c(C(F)(F)F)c3)nn2CC(F)F)C1 [compound 149, 5-(1-(2,2-difluoroethyl)-5-((1R,3s,5S,6r)-3-(3-methoxyazetidin-1-yl)bicyclo[3.1.0]hexan-6-yl)-1H-pyrazol-3-yl)-3-(trifluoromethyl) pyridin-2-amine] | 4.1
9 | CC(C)n1nc(-c2cnc(N)c(C(F)(F)F)c2)cc1[C@H]1[C@@H]2C[C@@]3(CCN3C3COC3)C[C@@H]21 [compound 151, 5-(1-isopropyl-5-((1′R,2r,5′S,6′r)-1-(oxetan-3-yl)spiro[azetidine-2,3′-bicyclo[3.1.0]hexan]-6′-yl)-1H-pyrazol-3-yl)-3-(trifluoromethyl) pyridin-2-amine] | 9

Results, then the compound that gave them:

Row | Ki [nM] | SMILES
10 | > 1600 | CC(C)n1nc(-c2cnc(N)c(C(F)(F)F)c2)cc1[C@@H]1[C@@H]2C[C@H](N3CCOCC3)C[C@@H]21 [compound 126, 5-(1-isopropyl-5-((1R,5S,6s)-3-morpholinobicyclo[3.1.0]hexan-6-yl)-1H-pyrazol-3-yl)-3-(trifluoro-methyl)pyridin-2-amine]
11 | 3.55 | Nc1ncc(-c2cc([C@H]3[C@@H]4C[C@H](N5CCOCC5)C[C@@H]43)n(CC3CCC3)n2)cc1OC(F)F [compound 127, 5-(1-(cyclobutylmethyl)-5-((1R, 3r,5S,6r)-3-morpholinobicyclo [3.1.0]hexan-6-yl)-1H-pyrazol-3-yl)-3-(difluoromethoxy)pyridin-2-amine]
12 | 5.06 | Nc1ncc(-c2cc([C@H]3[C@@H]4C[C@@H](N5CCOCC5)C[C@@H]43)n(CC3CCC3)n2)cc1OC(F)F [compound 128, 5-(1-(cyclobutylmethyl)-5-((1R, 3s,5S,6r)-3-morpholinobicyclo [3.1.0]hexan-6-yl)-1H-pyrazol-3-yl)-3-(difluoromethoxy)pyridin-2-amine]
13 | 4.52 | Nc1ncc(-c2cc([C@H]3[C@@H]4C[C@H](N5CCOCC5)C[C@@H]43)n(C3CCCC3)n2)cc1OC(F)F [compound 129, 5-(1-cyclopentyl-5-((1R,3r,5S,6r)-3-morpholinobicyclo[3.1.0]hexan-6-yl)-1H-pyrazol-3-yl)-3-(difluoromethoxy)pyridin-2-amine]
14 | 4.82 | Nc1ncc(-c2cc([C@H]3[C@@H]4C[C@@H](N5CCOCC5)C[C@@H]43)n(C3CCCC3)n2)cc1OC(F)F [compound 130, 5-(1-cyclopentyl-5-((1R,3s,5S,6r)-3-morpholinobicyclo[3.1.0]hexan-6-yl)-1H-pyrazol-3-yl)-3-(difluoromethoxy)pyridin-2-amine]
15 | 3.5 | Nc1ncc(-c2cc([C@H]3[C@@H]4C[C@@H](N5CCOCC5)C[C@@H]43)n(C3CCC3)n2)cc1OC(F)F [compound 131, 5-(1-cyclobutyl-5-((1R,3s,5S,6r)-3-morpholinobicyclo[3.1.0]hexan-6-yl)-1H-pyrazol-3-yl)-3-(difluoromethoxy)pyridin-2-amine]
16 | 258 | Nc1ncc(-c2cc([C@H]3[C@@H]4C[C@H](N5CCOCC5)C[C@@H]43)nn2C2CCC2)cc1OC(F)F [compound 132, 5-(1-cyclobutyl-3-((1R,3r,5S,6r)-3-morpholinobicyclo[3.1.0]hexan-6-yl)-1H-pyrazol-5-yl)-3-(difluoromethoxy)pyridin-2-amine]
17 | ≥ 321 | Nc1ncc(-c2cc([C@H]3[C@@H]4C[C@@H](N5CCOCC5)C[C@@H]43)nn2C2CCC2)cc1OC(F)F [compound 133, 5-(1-cyclobutyl-3-((1R,3s,5S,6r)-3-morpholinobicyclo[3.1.0]hexan-6-yl)-1H-pyrazol-5-yl)-3-(difluoromethoxy)pyridin-2-amine]
18 | 1.58 | Nc1ncc(-c2cc([C@H]3[C@@H]4C[C@H](N5CCOCC5)C[C@@H]43)n(C3CCC3)n2)cc1OC(F)F [compound 134, 5-(1-cyclobutyl-5-((1R,3r,5S,6r)-3-morpholinobicyclo[3.1.0]hexan-6-yl)-1H-pyrazol-3-yl)-3-(difluoromethoxy)pyridin-2-amine]
19 | 5.57 | Nc1ncc(-c2cc([C@H]3[C@@H]4C[C@@H](N5CCCOCC5)C[C@@H]43)n(CC(F)F)n2)cc1C(F)(F)F [compound 135, 5-(5-((1R,3s,5S,6r)-3-(1,4-oxazepan-4-yl)bicyclo[3.1.0]hexan-6-yl)-1-(2,2-difluoroethyl)-1H-pyrazol-3-yl)-3-(trifluoromethyl) pyridin-2-amine]
20 | 7.1 | Nc1ncc(-c2cc([C@H]3[C@@H]4C[C@H](N5CCCOCC5)C[C@@H]43)n(CC(F)F)n2)cc1C(F)(F)F [compound 136, 5-(5-((1R,3r,5S,6r)-3-(1,4-oxazepan-4-yl)bicyclo[3.1.0]hexan-6-yl)-1-(2,2-difluoroethyl)-1H-pyrazol-3-yl)-3-(trifluoromethyl) pyridin-2-amine]
21 | 3.34 | CC(C)n1nc(-c2cnc(N)c(OC(F)F)c2)cc1[C@H]1[C@@H]2C[C@@H](N3CCOCC3)C[C@@H]21 [compound 137, 3-(difluoromethoxy)-5-(1-isopropyl-5-((1R,3s,5S,6r)-3-morpholino-bicyclo[3.1.0]hexan-6-yl)-1 H-pyrazol-3-yl)pyridin-2-amine]
22 | 3.6 | CO[C@H]1CCN([C@@H]2C[C@@H]3[C@H](C2)[C@H]3c2cc(-c3cnc(N)c(C(F)(F)F)c3)nn2CC(F)F)C1 [compound 150, 5-(1-(2,2-difluoroethyl)-5-((1R,3s,5S,6S)-3-((S)-3-methoxy-pyrrolidin-1-yl)bicyclo[3.1.0]hexan-6-yl)-1H-pyrazol-3-yl)-3-(trifluoro-methyl)pyridin-2-amine]
23 | 0.9 | CC(C)n1nc(-c2cnc(N)c(OC(F)F)c2)cc1[C@H]1[C@@H]2C[C@H](N3C4COCC3C4)C[C@@H]21 [compound 153, 5-(5-((1R,3r,5S,6r)-3-(3-oxa-6-azabicyclo[3.1.1]heptan-6-yl)bicyclo[3.1.0]hexan-6-yl)-1-isopropyl-1H-pyrazol-3-yl)-3-(difluoro-methoxy)pyridin-2-amine]
